Measurements reported in the NIST ThermoML archive (doi:10.1021/acs.jced.6b00542).

Assay: xn = mol fraction of the nth substance listed
Details: for speed of sound: 100 kPa, Frequency=3 MHz, Sing-around technique in a fixed-path interferometer; for speed of sound / viscosity / mass density: Liquid; for viscosity / mass density: 102 kPa; for viscosity: Concentric cylinders viscometry; for mass density: Vibrating tube method; for surface tension liquid-gas: 294.5 K, Pendant drop shape

CCCCc1ccccc1 [butylbenzene] + CCCCCCCCCCCC
Details | mass density [kg/m3] | speed of sound [m/s] | viscosity [mPa·s]
293.15 K, x1 = 0.1241 | 758.28 | 1300.2 | 1.38
293.15 K, x1 = 0.2414 | 768.11 | 1302.8 | 1.31
293.15 K, x1 = 0.3524 | 778.18 | 1306.4 | 1.24
293.15 K, x1 = 0.4583 | 788.6 | 1310.3 | 1.19
293.15 K, x1 = 0.5593 | 799.56 | 1315.4 | 1.15
293.15 K, x1 = 0.6552 | 810.7 | 1321.3 | 1.11
293.15 K, x1 = 0.7575 | 823.88 | 1328.6 | 1.08
293.15 K, x1 = 0.8349 | 834.67 | 1335.5 | 1.06
293.15 K, x1 = 0.9194 | 847.33 | 1343.9 | 1.04
293.15 K, x1 = 1 | 860.51 | 1353.7 | 1.05
303.15 K, x1 = 0.1241 | 750.96 | 1262 | 1.17
303.15 K, x1 = 0.2414 | 760.73 | 1264.8 | 1.12
303.15 K, x1 = 0.3524 | 770.74 | 1268.4 | 1.07
303.15 K, x1 = 0.4583 | 781.11 | 1272.3 | 1.03
303.15 K, x1 = 0.5593 | 791.97 | 1277.3 | 0.996
303.15 K, x1 = 0.6552 | 803.03 | 1283.1 | 0.968
303.15 K, x1 = 0.7575 | 816.12 | 1290.4 | 0.941
303.15 K, x1 = 0.8349 | 826.84 | 1297 | 0.925
303.15 K, x1 = 0.9194 | 839.4 | 1305.4 | 0.909
303.15 K, x1 = 1 | 852.49 | 1314.9 | 0.91
313.15 K, x1 = 0.1241 | 743.61 | 1224.4 | 1.01
313.15 K, x1 = 0.2414 | 753.32 | 1227.2 | 0.968
313.15 K, x1 = 0.3524 | 763.26 | 1230.8 | 0.931
313.15 K, x1 = 0.4583 | 773.56 | 1234.7 | 0.9
313.15 K, x1 = 0.5593 | 784.35 | 1239.7 | 0.873
313.15 K, x1 = 0.6552 | 795.32 | 1245.4 | 0.85
313.15 K, x1 = 0.7575 | 808.33 | 1252.5 | 0.829
313.15 K, x1 = 0.8349 | 818.96 | 1259.1 | 0.816
313.15 K, x1 = 0.9194 | 831.44 | 1267.3 | 0.804
313.15 K, x1 = 1 | 844.43 | 1276.6 | 0.801
323.15 K, x1 = 0.1241 | 736.23 | 1187.2 | 0.879
323.15 K, x1 = 0.2414 | 745.87 | 1190 | 0.846
323.15 K, x1 = 0.3524 | 755.75 | 1193.7 | 0.817
323.15 K, x1 = 0.4583 | 765.97 | 1197.6 | 0.793
323.15 K, x1 = 0.5593 | 776.69 | 1202.5 | 0.771
323.15 K, x1 = 0.6552 | 787.58 | 1208.1 | 0.753
323.15 K, x1 = 0.7575 | 800.5 | 1215.2 | 0.736
323.15 K, x1 = 0.8349 | 811.06 | 1221.6 | 0.725
323.15 K, x1 = 0.9194 | 823.44 | 1229.7 | 0.716
323.15 K, x1 = 1 | 836.34 | 1238.7 | 0.713
333.15 K, x1 = 0.1241 | 728.82 | 1150.5 | 0.771
333.15 K, x1 = 0.2414 | 738.39 | 1153.4 | 0.745
333.15 K, x1 = 0.3524 | 748.19 | 1157 | 0.722
333.15 K, x1 = 0.4583 | 758.34 | 1161 | 0.703
333.15 K, x1 = 0.5593 | 768.98 | 1165.8 | 0.686
333.15 K, x1 = 0.6552 | 779.81 | 1171.3 | 0.671
333.15 K, x1 = 0.7575 | 792.63 | 1178.4 | 0.657
333.15 K, x1 = 0.8349 | 803.11 | 1184.6 | 0.649
333.15 K, x1 = 0.9194 | 815.41 | 1192.5 | 0.64
333.15 K, x1 = 1 | 828.21 | 1201.4 | 0.636
343.15 K, x1 = 0.1241 | 721.2 | – | 0.683
343.15 K, x1 = 0.2414 | 730.8 | – | 0.662
343.15 K, x1 = 0.3524 | 740.5 | – | 0.643
343.15 K, x1 = 0.4583 | 750.7 | – | 0.627
343.15 K, x1 = 0.5593 | 761.2 | – | 0.614
343.15 K, x1 = 0.6552 | 771.9 | – | 0.602
343.15 K, x1 = 0.7575 | 784.7 | – | 0.59
343.15 K, x1 = 0.8349 | 795.1 | – | 0.583
343.15 K, x1 = 0.9194 | 807.2 | – | 0.576
343.15 K, x1 = 1 | 819.9 | – | 0.571
353.15 K, x1 = 0.1241 | 713.7 | – | 0.608
353.15 K, x1 = 0.2414 | 723.2 | – | 0.591
353.15 K, x1 = 0.3524 | 732.9 | – | 0.576
353.15 K, x1 = 0.4583 | 743 | – | 0.563
353.15 K, x1 = 0.5593 | 753.4 | – | 0.552
353.15 K, x1 = 0.6552 | 764 | – | 0.542
353.15 K, x1 = 0.7575 | 776.7 | – | 0.532
353.15 K, x1 = 0.8349 | 787 | – | 0.526
353.15 K, x1 = 0.9194 | 799.1 | – | 0.521
353.15 K, x1 = 1 | 811.7 | – | 0.516
363.15 K, x1 = 0.1241 | 706.1 | – | 0.546
363.15 K, x1 = 0.2414 | 715.6 | – | 0.532
363.15 K, x1 = 0.3524 | 725.1 | – | 0.519
363.15 K, x1 = 0.4583 | 735.2 | – | 0.508
363.15 K, x1 = 0.5593 | 745.5 | – | 0.499
363.15 K, x1 = 0.6552 | 756 | – | 0.491
363.15 K, x1 = 0.7575 | 768.6 | – | 0.483
363.15 K, x1 = 0.8349 | 778.9 | – | 0.478
363.15 K, x1 = 0.9194 | 790.9 | – | 0.473
363.15 K, x1 = 1 | 803.4 | – | 0.469
373.15 K, x1 = 0.1241 | 698.5 | – | 0.493
373.15 K, x1 = 0.2414 | 707.8 | – | 0.481
373.15 K, x1 = 0.3524 | 717.3 | – | 0.471
373.15 K, x1 = 0.4583 | 727.2 | – | 0.461
373.15 K, x1 = 0.5593 | 737.5 | – | 0.454
373.15 K, x1 = 0.6552 | 747.9 | – | 0.447
373.15 K, x1 = 0.7575 | 760.5 | – | 0.44
373.15 K, x1 = 0.8349 | 770.7 | – | 0.436
373.15 K, x1 = 0.9194 | 782.6 | – | 0.432
373.15 K, x1 = 1 | 795 | – | 0.43

Details | surface tension liquid-gas [mN/m]
x1 = 0.1241 | 25.4
x1 = 0.2414 | 26
x1 = 0.3524 | 26.3
x1 = 0.4583 | 26.2
x1 = 0.5593 | 26.7
x1 = 0.6552 | 27
x1 = 0.7575 | 27.5
x1 = 0.8349 | 27.7
x1 = 0.9194 | 28.4
